Data published in patent publication US20250222028A1, “ENGINEERED IMMUNE CELL PLATFORM” (Cancer Research Technology Limited, priority 2022, published 2025).

What was measured:
EL-4 tumour cells = assay: LDH cytotoxicity assay, OT-I CD8+ CTLs co-cultured with Ova peptide-pulsed EL-4 target cells; type: cell-based, murine; conditions: 10 μM, over a range of effector-to-target ratios, vs carrier control
Method: (§1) FIG. 1. L-type Cav channel agonists increase Gli1 expression and enhance specific cell killing by murine CD8+ CTLs. CD8^+ T cells were isolated from the spleen and inguinal lymph nodes of Rag2^−/− OT-I mice, and CTLs were generated. (A) Cells were restimulated on day 9/10 for 3 hours using plate-bound anti-CD3ε in the presence of indicated concentrations of FPL 64176 or carrier control. RNA was extracted and Gli1 expression was assessed by qRT-PCR. Data is n=3 independent experiments. us=unstimulated cells. (B) An LDH cytotoxicity assay was performed using OT-I CTLs. On day 7, CTLs were co-cultured with Ova peptide-pulsed EL-4 cells in the presence of 10 μM FPL 64176 (squares) or carrier control (circles). Data is n=4 independent experiments. (C) Updated experiment of (A). Data is now n=4 independent experiments. Data is normalised to Tbp as a reference gene. 0h=unstimulated cells. (D) Same data as (B) represented differently. […] Error bars indicate SD. p values were calculated using an unpaired two-tailed Student's t test (C) or a two-way ANOVA (B/D). * indicates p<0.05, ** indicates p<0.01, **** indicates p<0.0001.
FIG. 11. […] (A) Quantitative analysis of live cell numbers. […] (E) Quantitative analysis of live cell numbers. […]
To ensure that the use of L-type Cav agonist is not adversely affecting immune cells, general cell functions were assessed. […]

Gli1 = Gli1 expression by qRT-PCR in anti-CD3ε-stimulated murine CD8+ CTLs; type: cell-based
Method: as §1
FIG. 2. FPL 64176 but not (R)-Baclofen nor Nefiracetam enhance Gli1 expression in murine CD8+ CTLs. Naïve CD8^+ T cells were isolated from the spleens of OT-I Rag2^−/− mice and CTLs were generated. Cells were restimulated using an anti-CD3ε mAb in the presence indicated concentrations of (A) FPL 64176, (B) (R)-Baclofen or (C) Nefiracetam (or carrier control). CTLs were pre-incubated with the relevant pharmacological agents for 40-50 mins prior to stimulation (ensuring sufficient time for the agents, e.g., FPL 64176, to enter the cell. Gli1 expression was assessed by qRT-PCR. Data is n=2 independent experiments. Error bars indicate SD.
To investigate a potential role for L-type Cav channel agonists in modulating CD8+ CTL activation and effector function, CD8+ T cells were isolated from the spleen and inguinal lymph nodes of Rag2−/− OT-I mice and CTLs were generated. […] OT-I mice bear a transgene encoding for a TCR that recognises a chicken ovalbumin (Ova) peptide fragment. Rag2−/− OT-I mice facilitate the isolation of naïve CD8+ T cell populations. Plates were coated using 2.5 μg/mL anti-CD3ε mAb and CD8+ CTLs were stimulated for 3 hours via the TCR in the presence of 5 or 10 μM FPL 64176, an L-type Cav channel agonist, or carrier control. Note that CD8+ CTLs were pre-incubated with FPL 64176 or carrier control for 40-50 mins before stimulation. Gli1 expression was assessed using qRT-PCR.
In brief, naïve CD8+ T cells were isolated from the spleen and inguinal lymph nodes of C57BL/6 wildtype mice and CTLs were generated. […] RNA was extracted from cells and Gli1 expression was assessed by qRT-PCR. […]

SMILES: COC(=O)c1c(C)[nH]c(C)c1C(=O)c1ccccc1Cc1ccccc1 [FPL 64176]
- improvement of specific cell killing of EL-4 tumour cells (EL-4 tumour cells): at least 100%
- Gli1 expression following TCR activation (Gli1; anti-CD3ε restimulation 6 hours, indicated concentrations, vs carrier control (FIG. 2)): successfully enhances
- Gli1 expression (Gli1; anti-CD3ε stimulation 3 hours, 5 or 10 μM, pre-incubation 40-50 mins, vs carrier control): dose-dependent increase
